Measurements taken from ChEMBL document CHEMBL1201862, “PubChem BioAssay data set” (2004).
Active and inactive are the calls of the source.

Tests used:
[1] = target: T1, Corticotropin-releasing factor receptor 2/Corticotropin-releasing factor-binding protein (Homo sapiens, UniProt P24387+Q13324); test: Dose Response confirmation of uHTS hits for small molecule antagonists of the CRF-binding protein and CRF-R2 receptor complex.; format: functional; conditions: read-out: IC50_Mean
T1 sequence (Q13324 whole entry): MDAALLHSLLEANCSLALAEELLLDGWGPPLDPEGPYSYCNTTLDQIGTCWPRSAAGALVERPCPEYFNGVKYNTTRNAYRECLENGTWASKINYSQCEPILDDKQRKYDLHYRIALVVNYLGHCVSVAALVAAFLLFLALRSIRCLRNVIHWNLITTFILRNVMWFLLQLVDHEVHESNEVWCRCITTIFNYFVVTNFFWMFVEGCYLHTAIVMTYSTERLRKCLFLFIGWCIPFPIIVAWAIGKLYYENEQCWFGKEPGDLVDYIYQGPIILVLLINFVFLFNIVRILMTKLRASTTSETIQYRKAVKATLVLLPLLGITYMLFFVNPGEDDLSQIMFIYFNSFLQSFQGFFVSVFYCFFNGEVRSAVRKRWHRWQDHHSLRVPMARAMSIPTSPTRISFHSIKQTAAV
T1 sequence (P24387 whole entry): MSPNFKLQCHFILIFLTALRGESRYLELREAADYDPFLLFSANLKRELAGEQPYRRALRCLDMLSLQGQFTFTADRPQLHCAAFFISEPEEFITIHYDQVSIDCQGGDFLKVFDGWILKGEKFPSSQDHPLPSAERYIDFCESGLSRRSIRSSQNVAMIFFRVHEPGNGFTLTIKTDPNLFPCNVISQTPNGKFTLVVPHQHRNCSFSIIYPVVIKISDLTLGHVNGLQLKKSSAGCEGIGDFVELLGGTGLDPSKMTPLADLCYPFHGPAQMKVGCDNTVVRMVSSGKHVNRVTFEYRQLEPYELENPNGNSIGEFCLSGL

[2] = target: T1, Corticotropin-releasing factor receptor 2/Corticotropin-releasing factor-binding protein; test: activators of CRF receptor 2 with binding protein – uHTS hits, confirmation (AID 602473); format: functional; conditions: read-out: EC50_Mean
Vero = test: Vero cell toxicity, dose response, cytotoxicity control, plate reader, cherry-pick samples (AID 687020); format: functional, cell-based; conditions: Chlorocebus sabaeus
[3] = ZM109 Env clade C HIV-1 fusion inhibitors, dose response, HeLa effector, CEM target cells, luciferase, cherry-pick (AID 652058); format: functional, cell-based
[4] = inhibitors of HIV Env-driven cell fusion, dose response, cherry-pick (AID 652057); format: functional, cell-based
[5] = inhibitors of intracellular T. cruzi replication, confirmation, NIH3T3 host cells, beta-gal luminescence (AID 2044); format: functional, cell-based;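 also: intracellular parasites grown in NIH/3T3 mouse fibroblasts as host cells; luminescent beta-galactosidase reporter signal from transgenic T. cruzi replicating inside host cells; inhibitors lower the luminescence signal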
[6] = inhibitors of clade B AD8 Env fusion, dose response, cell-based, cherry-pick (AID 652062); format: functional;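 also: luciferase signal from cell-cell fusion driven by HIV-1 clade B AD8 Env; potency is for inhibitors of fusion seen as a drop in luminescence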
[7] = cytotoxicity toward NIH3T3 fibroblasts, dose response, counter-screen, cell-based, ATP luminescence, mouse fibroblasts (AID 2010); format: functional;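 also: cells exposed to compound for about 90 hours before reading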
[8] = off-target signal loss in HeLa-CEM21 co-culture – HeLa F-luc CTL cells, cherry-picked, counter-screen for HIV-1 Env fusion inhibitor project, dose response (AID 652040); format: functional, cell-based;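 also: potency for signal decrease marking cytotoxic or nonspecific inhibition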
[9] = CEM21 lymphoblast cell cytotoxicity, dose response, cytotoxicity control for viral fusion inhibitor project, CellTiter-Glo luminescence, cherry-picked (AID 652042); format: functional, cell-based;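 also: potency for signal decrease meaning cytotoxicity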
[10] = Luminescence Cell-Based Dose Confirmation HTS to Identify Activators of 5'UTR Stem-Loop Driven Alpha-Synuclein mRNA Translation in H4 Neuroglioblastoma Cells. [Related pubchem assays: 1829 (Project Summary), 1814 (Primary HTS)]; format: functional
[11] = target: Fructose-bisphosphate aldolase (Mycobacterium tuberculosis, UniProt P9WQA3); test: Fluorescence-based biochemical high throughput dose response assay for inhibitors of the fructose-bisphosphate aldolase (FBA) of M. tuberculosis.; format: functional
Chain of Fructose-bisphosphate aldolase (P9WQA3 whole entry): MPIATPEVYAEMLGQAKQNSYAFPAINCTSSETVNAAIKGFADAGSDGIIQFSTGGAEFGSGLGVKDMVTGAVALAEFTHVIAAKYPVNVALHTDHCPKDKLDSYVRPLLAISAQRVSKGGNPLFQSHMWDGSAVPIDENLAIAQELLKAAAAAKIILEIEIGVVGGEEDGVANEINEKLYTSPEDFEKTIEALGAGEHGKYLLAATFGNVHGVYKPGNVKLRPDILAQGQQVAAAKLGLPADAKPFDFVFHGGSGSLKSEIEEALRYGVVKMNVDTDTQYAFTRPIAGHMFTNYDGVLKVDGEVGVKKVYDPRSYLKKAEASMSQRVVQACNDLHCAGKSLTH

H4 = test: Luminescence Cell-Based Dose Response HTS to Identify Activators of 5'UTR Stem-Loop Driven Prion Protein mRNA Translation in H4 Neuroglioblastoma Cells. [Related pubchem assays: 1829 (Project Summary), 1814 (Primary HTS)]; format: functional; conditions: Homo sapiens
[12] = Luminescence Cell-Based Dose Response HTS to Identify Activators of Luciferase Translation or Activity in H4 […] Cells. [Related pubchem assays: 1829 (Project Summary), 1814 (Primary HTS)]; format: functional
Beta-galactosidase = Beta-galactosidase (Escherichia coli, UniProt Q8VNN2); test: Dose response counterscreen for EBI2 assay utilizing the enzyme, b-galactosidase.; format: functional
Chain of Beta-galactosidase (Q8VNN2 whole entry): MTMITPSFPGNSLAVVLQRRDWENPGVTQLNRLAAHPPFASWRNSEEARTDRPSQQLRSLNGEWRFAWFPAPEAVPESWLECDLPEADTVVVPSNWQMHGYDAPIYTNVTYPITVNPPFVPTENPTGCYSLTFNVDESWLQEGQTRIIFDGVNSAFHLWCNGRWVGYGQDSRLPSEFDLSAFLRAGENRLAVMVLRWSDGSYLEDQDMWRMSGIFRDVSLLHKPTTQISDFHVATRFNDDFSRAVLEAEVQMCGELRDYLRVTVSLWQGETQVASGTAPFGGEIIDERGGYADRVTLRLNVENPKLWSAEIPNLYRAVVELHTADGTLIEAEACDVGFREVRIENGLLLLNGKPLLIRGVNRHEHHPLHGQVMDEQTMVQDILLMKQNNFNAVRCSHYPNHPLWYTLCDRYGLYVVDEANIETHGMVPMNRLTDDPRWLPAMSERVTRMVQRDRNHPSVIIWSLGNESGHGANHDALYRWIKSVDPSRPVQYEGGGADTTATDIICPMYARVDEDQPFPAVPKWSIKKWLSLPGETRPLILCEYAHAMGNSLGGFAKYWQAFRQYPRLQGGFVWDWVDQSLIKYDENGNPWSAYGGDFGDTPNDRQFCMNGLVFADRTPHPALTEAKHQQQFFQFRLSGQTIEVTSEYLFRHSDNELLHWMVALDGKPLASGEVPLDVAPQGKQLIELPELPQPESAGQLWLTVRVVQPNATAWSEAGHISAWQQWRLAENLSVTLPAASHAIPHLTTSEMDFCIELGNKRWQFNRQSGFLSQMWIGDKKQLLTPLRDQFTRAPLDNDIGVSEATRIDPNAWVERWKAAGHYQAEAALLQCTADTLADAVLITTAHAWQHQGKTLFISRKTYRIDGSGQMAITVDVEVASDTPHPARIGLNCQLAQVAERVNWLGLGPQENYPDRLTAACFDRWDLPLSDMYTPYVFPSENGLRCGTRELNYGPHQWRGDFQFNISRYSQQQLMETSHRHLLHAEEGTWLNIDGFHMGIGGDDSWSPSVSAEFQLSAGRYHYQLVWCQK

[13] = NIH-3T3 fibroblast cytotoxicity, dose response, cytotoxicity control, cell-based, fluorescence, Alamar Blue, secondary assay (AID 2327); format: functional;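 also: NIH-3T3 mouse fibroblasts cultured with fluconazole at 8 µg/mL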
[14] = HepG2 cell cytotoxicity, dose response, cytotoxicity control for Shn3 inhibitor project, CellTiter-Glo, cherry-picked (AID 624134); format: functional, cell-based
[15] = target: T2, Serine/threonine-protein phosphatase (Candida dubliniensis (strain CD36 / CBS 7987 / NCPF 3949 / NRRLY-17841) (Yeast), UniProt B9W6M3); test: calcineurin pathway inhibitors in yeast reporter, dose response, S. cerevisiae, CDRE-lacZ, luminescence, secondary (AID 2388); format: functional, cell-based;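 also: yeast reporter cells carrying a calcineurin-responsive lacZ construct stimulated with calcium chloride; luminescent beta-galactosidase reporter signal in whole cells rather than isolated phosphatase activity; potency for inhibition where a drop in reporter signal means calcineurin blockade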
T2 sequence (B9W6M3 whole entry): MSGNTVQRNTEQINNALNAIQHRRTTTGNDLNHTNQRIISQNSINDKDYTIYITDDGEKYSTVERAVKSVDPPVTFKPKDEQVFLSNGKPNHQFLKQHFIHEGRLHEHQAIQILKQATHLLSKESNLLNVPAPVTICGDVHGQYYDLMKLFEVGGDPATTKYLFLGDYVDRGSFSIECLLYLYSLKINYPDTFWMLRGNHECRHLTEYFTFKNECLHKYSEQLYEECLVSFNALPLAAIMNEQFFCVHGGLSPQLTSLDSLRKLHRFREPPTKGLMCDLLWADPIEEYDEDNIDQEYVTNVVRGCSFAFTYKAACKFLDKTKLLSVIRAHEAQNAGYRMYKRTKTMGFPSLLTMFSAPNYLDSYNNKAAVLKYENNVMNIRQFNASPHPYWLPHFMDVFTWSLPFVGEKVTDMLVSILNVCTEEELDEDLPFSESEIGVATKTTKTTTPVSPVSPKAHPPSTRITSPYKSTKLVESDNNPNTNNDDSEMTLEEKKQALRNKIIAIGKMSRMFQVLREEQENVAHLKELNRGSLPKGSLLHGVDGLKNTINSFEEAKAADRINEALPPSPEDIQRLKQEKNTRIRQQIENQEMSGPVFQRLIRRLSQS

[16] = inhibitors of control Renilla luciferase reporter, dose response, counter-screen for Shn3 3'UTR targeting project, Clone20-Shn3RL cells, dual-Glo, cherry-pick, set 2 (AID 720724); format: functional, cell-based; conditions: Dual-Go Shn3RL
INS1 = test: beta cell apoptosis inhibitors, cytokine rescue, dose response, luminescence, retest (AID 449756); format: functional, cell-based; conditions: Rattus norvegicus;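 also: cell death triggered by IL-1 beta plus TNF-alpha plus IFN-gamma mixture; protective hits raise ATP signal compared with cytokine alone wells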
[17] = target: ATP-dependent molecular chaperone HSP82 (Candida albicans (strain WO-1) (Yeast), UniProt C4YTQ8); test: loss of DOC-induced GRE-beta-galactosidase reporter signal, dose response, Hsp90 inhibitor project, S. cerevisiae, luminescence (AID 2400); format: functional, cell-based;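 also: beta-galactosidase luminescence from glucocorticoid response element reporter as proxy for Hsp90 function; inhibitor potency where signal loss means Hsp90 inhibition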
Chain of ATP-dependent molecular chaperone HSP82 (C4YTQ8 whole entry): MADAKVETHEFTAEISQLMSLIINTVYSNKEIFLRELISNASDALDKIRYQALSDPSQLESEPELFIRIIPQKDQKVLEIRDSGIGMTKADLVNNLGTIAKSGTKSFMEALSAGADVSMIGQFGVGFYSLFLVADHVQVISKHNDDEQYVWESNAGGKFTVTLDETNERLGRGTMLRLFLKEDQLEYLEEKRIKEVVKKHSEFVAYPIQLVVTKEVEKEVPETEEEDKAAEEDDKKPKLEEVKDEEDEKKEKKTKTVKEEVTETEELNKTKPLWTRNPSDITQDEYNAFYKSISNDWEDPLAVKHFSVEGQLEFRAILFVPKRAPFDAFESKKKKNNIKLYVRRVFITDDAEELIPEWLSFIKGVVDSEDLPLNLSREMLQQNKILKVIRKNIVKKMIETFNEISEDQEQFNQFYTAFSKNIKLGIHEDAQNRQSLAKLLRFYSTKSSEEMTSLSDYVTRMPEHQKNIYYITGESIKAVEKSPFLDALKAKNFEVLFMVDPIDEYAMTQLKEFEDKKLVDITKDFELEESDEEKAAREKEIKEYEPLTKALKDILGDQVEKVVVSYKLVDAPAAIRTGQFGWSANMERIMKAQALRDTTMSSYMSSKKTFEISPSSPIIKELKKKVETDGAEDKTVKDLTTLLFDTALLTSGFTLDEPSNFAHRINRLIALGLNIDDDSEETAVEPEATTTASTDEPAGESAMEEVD

[18] = C. albicans growth with fluconazole, confirmation, fluorescence, retest (AID 2467); format: functional, cell-based
[19] = control 3'UTR Renilla luciferase suppression, dose response, counter-screen for Shn3 inhibitor project, cell-based, Clone20-Shn3RL, cherry-picked (AID 624133); format: functional
Protein skinhead-1 = target: T3, Protein skinhead-1 (Caenorhabditis elegans, UniProt P34707); format: functional
T3 sequence (P34707 whole entry): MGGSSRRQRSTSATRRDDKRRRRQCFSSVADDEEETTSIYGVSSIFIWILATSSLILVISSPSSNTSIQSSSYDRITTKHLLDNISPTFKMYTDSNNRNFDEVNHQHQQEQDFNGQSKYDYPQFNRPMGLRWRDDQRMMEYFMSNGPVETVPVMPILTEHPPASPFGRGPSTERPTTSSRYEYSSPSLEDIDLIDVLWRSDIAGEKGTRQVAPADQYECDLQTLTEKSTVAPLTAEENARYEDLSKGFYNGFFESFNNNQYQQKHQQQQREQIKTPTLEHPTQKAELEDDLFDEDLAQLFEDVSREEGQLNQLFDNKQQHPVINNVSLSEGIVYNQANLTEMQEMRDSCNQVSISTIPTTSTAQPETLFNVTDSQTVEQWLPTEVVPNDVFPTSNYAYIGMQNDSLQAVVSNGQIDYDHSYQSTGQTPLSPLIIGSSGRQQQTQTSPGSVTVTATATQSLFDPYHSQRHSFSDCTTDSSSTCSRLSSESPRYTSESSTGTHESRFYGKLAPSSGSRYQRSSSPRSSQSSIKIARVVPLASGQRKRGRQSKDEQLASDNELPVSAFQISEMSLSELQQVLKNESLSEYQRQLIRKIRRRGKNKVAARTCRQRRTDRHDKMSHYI

[20] = Shn3 3'UTR reporter inhibitors, dose response, cell-based, Clone20 osteoblasts, firefly luciferase, cherry-picked (AID 624132); format: functional;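 also: firefly luciferase luminescence from reporter carrying the Shn3 3'UTR in osteoblasts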
[21] = target: T2, Serine/threonine-protein phosphatase; test: Fluorescence Cell-Based Secondary Assay to Identify Inhibitors of Calcineurin. [Related pubchem assays (depositor defined):AID1979, AID2007]; format: functional
[22] = reduction of Shn3 3'UTR firefly luciferase signal, dose response, Schnurri-3 inhibitor project, cell-based, Clone20 osteoblasts, cherry-pick, set 2 (AID 720490); format: functional;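 also: actives lower the luminescence signal as inhibitors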

CCCn1c(=N)n(CC(O)COc2ccc(C)cc2)c2ccccc21 (configuration not stated)
IC50 [1]: > 47.1 µM (inactive)
EC50 [2]: > 53 µM (inactive)
AC50 (Vero): 24.6 µM (active)

CCN(CC(O)CON=C1c2ccccc2-c2ccccc21)S(=O)(=O)c1ccc(Cl)cc1 (configuration not stated)
AC50 [3]: 16.3 µM (active)
AC50 [4]: 5.8 µM (active)
EC50 [5]: 2.15 µM (active)
AC50 [6]: 28.6 µM (active)
EC50 [7]: > 60 µM (not active)
AC50 [8]: 10.1 µM (active)
AC50 [9]: 29.3 µM (active)

Cc1ccc(C2CC(c3ccccc3)=NN2c2ccccc2)o1 (configuration not stated)
EC50 [10]: 111 µM (active)
IC50 [11]: > 0.37 µM (active)
EC50 (H4): 27.9 µM (active)
EC50 [12]: > 120 µM (not active)

Cc1c(C(=O)N2CCN(c3ncccn3)CC2)oc2ccc(Cl)cc12
IC50 (Beta-galactosidase): > 80 µM (inactive)

Cc1nc2ccccc2cc1OCc1ccc(F)cc1
EC50 [13]: > 160 µM (inactive)
AC50 [14]: 41.7 µM (active)
EC50 [15]: > 180 µM (inactive)
AC50 [16]: 4.87 µM (active)
AC50 (INS1): 4.84 µM (active)
EC50 [17]: 21.1 µM (active)
EC50 [18]: 1.58 µM (active)
AC50 [19]: 22.1 µM (active)
IC50 (Protein skinhead-1): 12.2 µM (active)
AC50 [20]: 1.7 µM (active)
EC50 [21]: > 285 µM (inactive)
AC50 [22]: 2.05 µM (active)
